Earlier results, collected in patent US20050095288A1, “Decongestant and expectorant tablets” (Andrx Labs, LLC, priority 2003, published 2005).

Conditions: background statement, no test described

- typical plasma half-life: approximately one
Compound: COc1ccccc1OCC(O)CO (stereo not shown) [Guaifenesin, 3-(2-methoxyphenoxy)-1,2-propane-diol]
